Assay [1] has as its system A549. As to the kind of experiment: Cell-based assay, anti-proliferative activity (Cell Counting Kit-8, 72 hours). The settings on record: Homo sapiens, read-out: A549 IC50. Summed up:
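Cells were seeded in 96-well plates and exposed to candidate inhibitors. Cellular growth was then determined with the colorimetric kit, and IC50 values were calculated from the growth data.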
For orientation: Tetrazolium dyes change colour on reduction, which living cells bring about.

In assay [2] the target is SUV39H2 (Homo sapiens (Human), UniProt Q9H5I1). As to the kind of experiment: biochemical. It is filed as biochemical. The settings on record: 3H-SAM 100 nM, H3 Histone Peptide 350 nM, room temperature 3 hours. The procedure: Assay buffer (4 μL) was added into all the wells, including test compound and control wells (except for Sinefungin control wells), using the Multidrop Combi. The plate was centrifuged at 1000 rpm for 1 min. […] SUV39H2 (8 μL, final conc: optimized for each lot of the enzyme based on specific activity) was added by using the Multidrop Combi. The assay plate was centrifuged at 1000 rpm for 1 min. Assay buffer was used as background control, and incubated at room temperature for 3 hours. The reaction was stopped with 20 μL of 2.5 mg/mL Streptavidin SPA beads (final conc. 50 μg/well) in buffer using the Multidrop Combi and centrifuged for 1 min. The plate was loaded into the Trilux-Microbeta counter and a delayed read of 10 hours was made. The radioactive signal was measured at 1 min/well. Sinefungin and the internal standard compound were used as tool compounds to determine assay performance.
Sequence of SUV39H2 (Q9H5I1 whole entry): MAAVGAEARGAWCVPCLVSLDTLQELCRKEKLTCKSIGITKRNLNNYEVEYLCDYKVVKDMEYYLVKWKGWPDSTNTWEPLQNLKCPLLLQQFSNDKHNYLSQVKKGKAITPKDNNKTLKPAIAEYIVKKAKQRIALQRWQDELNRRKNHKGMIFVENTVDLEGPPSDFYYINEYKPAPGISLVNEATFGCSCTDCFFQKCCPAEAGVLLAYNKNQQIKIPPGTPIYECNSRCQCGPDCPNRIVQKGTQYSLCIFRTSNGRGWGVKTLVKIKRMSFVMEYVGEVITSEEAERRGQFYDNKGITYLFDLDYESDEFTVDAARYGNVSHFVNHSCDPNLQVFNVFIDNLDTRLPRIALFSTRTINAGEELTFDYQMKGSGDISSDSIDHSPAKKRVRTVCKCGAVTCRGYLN
• The following calculations were made using the obtained CPM raw data: Software used: XLFit from IDBS.
For each test plate the following results were calculated: • Average, Standard Deviation, and % CV of Background Controls • Average, Standard Deviation, and % CV of Positive Controls • Z′ value of the plate • IC50 values of standard and test compounds (in nM) • R^2 value of fitted concentration response curve • Hill slope coefficient of fitted concentration response curve • Signal to Noise Ratio

Setting [3] is: A549 cells, 72 hours exposure, Cell Counting Kit-8.

Each structure is given as a SMILES string. Counter-ions that a name gives are not always drawn. Like-named read-outs stand apart in the source and are kept apart here.

The text below walks through data of US10508109B2 (priority 2015, dated 2019).

The term IC50 denotes the midpoint of a concentration-inhibition curve.

For `COc1cc(OC)c(-c2cn3ccc(N4CCN(c5nccc(N6CCN(C(C)=O)CC6)n5)CC4)cc3n2)cc1Cl` [Example 373, 1-(4-(2-(4-(2-(5-chloro-2,4-dimethoxyphenyl)imidazo[1,2-a]pyridin-7-yl)piperazin-1-yl)pyrimidin-4-yl)piperazin-1-yl)ethanone 2,2,2-trifluoroacetate], the IC50 in assay [1] (setting [3]) is 640 nM; in assay [2], 13.6 nM.

Regarding `COc1cc(OC)c(-c2cn3ccc(N4CCCN(CC5CCCCC5)CC4)cc3n2)cc1Cl` [Example 435, 2-(5-chloro-2,4-dimethoxyphenyl)-7-(4-(cyclohexylmethyl)-1,4-diazepan-1-yl)imidazo[1,2-a]pyridine], the results for the IC50 in assay [1] (setting [3]) and in assay [2] were 650 nM and 6.46 nM, respectively.

On to `COc1cc(OC)c(-c2cn3ccc(N4CCN(c5ncc(N6CCOCC6)cn5)CC4)cc3n2)cc1Cl` [Example 427, 4-(2-(4-(2-(5-chloro-2,4-dimethoxyphenyl)imidazo[1,2-a]pyridin-7-yl)piperazin-1-yl)pyrimidin-5-yl)morpholine], for which the half-maximal inhibitory concentration (IC50) was 820 nM in assay [1] (setting [3]) and 25.1 nM in assay [2].

On to `COc1cc(OC)c(-c2cn3ccc(N[C@H]4C[C@H]5CC[C@@H](C4)N5CC4CCCC4)cc3n2)cc1Cl` [Example 443, 2-(5-chloro-2,4-dimethoxyphenyl)-N-((1R,3r,5S)-8-(cyclopentylmethyl)-8-azabicyclo[3.2.1]octan-3-yl)imidazo[1,2-a]pyridin-7-amine], for which the figures for the IC50 in assay [1] (setting [3]) and in assay [2] were 820 nM and 17.3 nM, respectively.

With `COc1cc(OC)c(-c2cn3cc(-c4ccc(C#N)cc4)c(N4CC[C@H](N)C4)cc3n2)cc1Cl` [Example 445, (S)-4-(7-(3-aminopyrrolidin-1-yl)-2-(5-chloro-2,4-dimethoxyphenyl)imidazo[1,2-a]pyridin-6-yl)benzonitrile dihydrochloride], the IC50 in assay [1] (A549, 72 h) amounted to 940 nM; in assay [2] it was 85.9 nM.

As to `COc1cc(OC)c(-c2cn3ccc(N4CCN(c5ccnc(N6CCC(N)CC6)n5)CC4)cc3n2)cc1Cl` [Example 338, 1-(4-(4-(2-(5-chloro-2,4-dimethoxyphenyl)imidazo[1,2-a]pyridin-7-yl)piperazin-1-yl)pyrimidin-2-yl)piperidin-4-amine], the figures for the IC50 in assay [1] (setting [3]) and in assay [2] were 1200 nM and 17 nM, respectively.

With `COCC(=O)N1CCN(c2ccn3cc(-c4cc(Cl)c(OC)cc4OC)nc3c2)CC1C` (stereo not shown) [Example 310, 1-(4-(2-(5-chloro-2,4-dimethoxyphenyl)imidazo[1,2-a]pyridin-7-yl)-2-methylpiperazin-1-yl)-2-methoxyethanone], the IC50 in assay [1] (setting [3]) amounted to 10000 nM; in assay [2], 1.78 nM.

As to `COc1cc(OC)c(-c2cn3ccc(N4CCN(c5nccc(N6CCNCC6)n5)CC4)cc3n2)cc1Cl` [Example 359, 2-(5-chloro-2,4-dimethoxyphenyl)-7-(4-(4-(piperazin-1-yl)pyrimidin-2-yl)piperazin-1-yl)imidazo[1,2-a]pyridine dihydrochloride], the concentration for half-maximal inhibition (IC50) in assay [1] (A549, 72 h) is 400 nM; in assay [2], 12.2 nM.

On to `COc1cc(OC)c(-c2cn3ccc(N4CCN(c5cnc(N6CCN(C)CC6)nc5)CC4)cc3n2)cc1Cl` [Example 358, 2-(5-chloro-2,4-dimethoxyphenyl)-7-(4-(2-(4-methylpiperazin-1-yl)pyrimidin-5-yl)piperazin-1-yl)imidazo[1,2-a]pyridine], for which the IC50 turned out to be 390 nM in assay [1] (setting [3]) and 17.1 nM in assay [2].

Turning to `COc1cc(OC)c(-c2cn3ccc(N4CCN(c5ccnc(N6CCC(CO)C6)n5)CC4)cc3n2)cc1Cl` (stereo not shown) [Example 367, (1-(4-(4-(2-(5-chloro-2,4-dimethoxyphenyl)imidazo[1,2-a]pyridine-7-yl)piperazin-1-yl)pyrimidin-2-yl)pyrrolidin-3-yl)methanol], the figures for the IC50 in assay [1] (setting [3]) and in assay [2] were 980 nM and 26.2 nM, respectively.

`COc1cc(OC)c(-c2cn3ccc(N4CCN(c5nc(N)nc(N6CCOCC6)n5)CC4)cc3n2)cc1Cl` [Example 379, 4-(4-(2-(5-chloro-2,4-dimethoxyphenyl)imidazo[1,2-a]pyridin-7-yl)piperazin-1-yl)-6-morpholino-1,3,5-triazin-2-amine]: the IC50 came to 420 nM in assay [1] (setting [3]) and 26.9 nM in assay [2].
